Data as given in article PMC6152667, “Synthesis and Evaluation of Antimicrobial Activity of [R4W4K]-Levofloxacin and [R4W4K]-Levofloxacin-Q Conjugates” (Molecules : A Journal of Synthetic Chemistry and Natural …, 2017).
Values after ≈ are worked out from the molar mass of the structure shown. Like-named read-outs stand apart in the source and are kept apart here. Side chains are listed from the residue outwards. Peptide text beside a SMILES is read from it. * marks the point of attachment. Levofloxacinoyl = C[C@H]1COc2c(N3CCN(C)CC3)c(F)cc3c(=O)c(C(=O)*)cn1c23; X1 = C[C@H]1COc2c(F)c(F)cc3c(=O)c(C(=O)*)cn1c23; βAla = NCCC(=O)O

Key:
Escherichia coli = tested on: Escherichia coli; set-up: method as in PMID 25157458; settings: previously reported; cited from earlier work
[1] = tested on: Methicillin-resistant Staphylococcus aureus (MRSA); set-up: method as in PMID 25157458; settings: previously reported; cited from earlier work
Excerpt: The development of a new class of antibiotics to fight bacterial resistance is a time-consuming effort associated with high-cost and commercial risks. Thus, modification, conjugation or combination of existing antibiotics to enhance their efficacy is a suitable strategy. […] Herein, we hypothesized that conjugation or combination of the amphiphilic cyclic peptide [R4W4] with levoflox ... || Antimicrobial peptides (AMPs) are vital parts of the innate immune system, which usually act at the level of the plasma membrane of the bacterial cell. AMPs have a unique mode of action, which is mostly related to their cationic and amphipathic properties, making them capable of interacting with microbial membranes. Accordingly, AMPs have attracted increasing attention as potential candidates against resistant bacteria. […] T ...

[2] = tested on: Methicillin-Resistant Staphylococcus aureus (Los Angeles County (LAC) clone); assay: microbe, parasite or virus in culture; assay type: cell-based; settings: for MIC: Staphylococcus aureus, MRSA, read-out: MIC, Methicillin-Resistant Staphylococcus aureus (MRSA)
Experimental: (§1) The antibacterial activities of synthesized peptides were evaluated against two bacterial strains and compared to a control antibiotic and [R4W4]. Gram-negative bacteria: Klebsiella pneumoniae (Clinical strain (levofloxacin-susceptible)) and the Gram-positive bacteria: Methicillin-Resistant Staphylococcus aureus (Los Angeles County (LAC) clone) were employed for the determination of antimicrobial activities of peptides. MRSA and Klebsiella pneumoniae were inoculated into 5 mL of Mueller Hinton […] (MH) at 37 °C and shaken in an orbital shaker at 175 rpm overnight. The cultured suspension was diluted in 5 mL normal saline until it achieved 0.5 McFarland (1.5 × 10^8 bacterial cell density) turbidity. An amount of 40 μL of the McFarland solution was added to […] of MH media to make 1/150 dilution. Most peptides were dissolved in distilled water (except some of them that were dissolved in 50 mM NH4HCO3 to improve the solubility) to make 256 μg/mL solutions. Minimal inhibitory concentrations (MICs) were determined using the broth microdilution method. Briefly, 200 μL of all tested peptides and controls was added in the first column of the 96-well plate. Then, by adding 100 μL of media to the other wells and performing a 2-fold dilution in each well, serial dilution of the compound was prepared. After a series of 2-fold dilutions, 100 μL of bacterial solution was added to all wells, and then the microliter plates were incubated statically at 37 °C overnight. MICs were determined as the minimal concentration at which no visible bacterial growth was present. All experiments were conducted in triplicate.

[3] = tested on: Klebsiella pneumoniae (Clinical strain (levofloxacin-susceptible)); assay: microbe, parasite or virus in culture; assay type: cell-based; settings: for MIC: Klebsiella pneumoniae
Experimental: as §1

[4] = broth microdilution, Mueller Hinton media, 2-fold dilutions, 37 °C overnight, no visible growth, triplicate, N/A = not active
[5] = broth microdilution, Mueller Hinton media, 2-fold dilutions, 37 °C overnight, no visible growth, triplicate, N/A = not active, listed as levofloxacin-Q
[6] = Clinical strain (levofloxacin-susceptible)

CN(C)[C@@H]1C(O)=C(C(N)=O)C(=O)[C@@]2(O)C(O)=C3C(=O)c4c(O)cccc4[C@@](C)(O)[C@H]3C[C@@H]12 [tetracycline]
MIC against Escherichia coli (Escherichia coli): 2 µg/mL (≈ 4.5 µM) | MIC against MRSA [1]: 0.5 µg/mL

C[C@H]1COc2c(N3CCN(C)CC3)c(F)cc3c(=O)c(C(=O)O)cn1c23 [Levofloxacin (1), Levofloxacin]
MIC [2, 4]: 2 µg/mL (≈ 5.53 µM) | MIC, Methicillin-Resistant Staphylococcus aureus (MRSA) [2, 4]: 2 µg/mL (≈ 5.53 µM) | MIC [3, 4]: 4 µg/mL (≈ 11.1 µM) | MIC, Klebsiella pneumoniae [3, 4]: 4 µg/mL (≈ 11.1 µM)

C[C@H]1COc2c(F)c(F)cc3c(=O)c(C(=O)O)cn1c23 [Levofloxacin-Q (2), Levofloxacin-Q acid]
MIC, Methicillin-Resistant Staphylococcus aureus (MRSA) [2, 4]: >128 µg/mL | MIC, Methicillin-Resistant Staphylococcus aureus (MRSA) [2, 5]: > 128 µg/mL | MIC, Klebsiella pneumoniae [3, 4]: >128 µg/mL | MIC, Klebsiella pneumoniae [3, 5]: > 128 µg/mL

C[C@H]1COc2c(F)c(F)cc3c(=O)c(C(=O)NCCC(=O)NCCCC[C@@H]4NC(=O)[C@H](Cc5c[nH]c6ccccc56)NC(=O)[C@H](Cc5c[nH]c6ccccc56)NC(=O)[C@H](Cc5c[nH]c6ccccc56)NC(=O)[C@H](Cc5c[nH]c6ccccc56)NC(=O)[C@H](CCCNC(=N)N)NC(=O)[C@H](CCCNC(=N)N)NC(=O)[C@H](CCCNC(=N)N)NC(=O)[C@H](CCCNC(=N)N)NC4=O)cn1c23 (cyclo(K([βAla-X1])RRRRWWWW))
MIC, Methicillin-Resistant Staphylococcus aureus (MRSA) [2, 4]: 8 µg/mL (≈ 4.37 µM) | MIC, Klebsiella pneumoniae [3, 4]: 32 µg/mL (≈ 17.5 µM)

C[C@H]1COc2c(N3CCN(C)CC3)c(F)cc3c(=O)c(C(=O)NCCC(=O)NCCCC[C@@H]4NC(=O)[C@H](Cc5c[nH]c6ccccc56)NC(=O)[C@H](Cc5c[nH]c6ccccc56)NC(=O)[C@H](Cc5c[nH]c6ccccc56)NC(=O)[C@H](Cc5c[nH]c6ccccc56)NC(=O)[C@H](CCCNC(=N)N)NC(=O)[C@H](CCCNC(=N)N)NC(=O)[C@H](CCCNC(=N)N)NC(=O)[C@H](CCCNC(=N)N)NC4=O)cn1c23 [Conjugate cyclic [R4W4]-levofloxacin (8)] (cyclo(K([βAla-Levofloxacinoyl])RRRRWWWW))
MIC, Methicillin-Resistant Staphylococcus aureus (MRSA) [2, 4]: 32 µg/mL (≈ 16.7 µM)

C[C@H]1COc2c(N3CCN(C)CC3)c(F)cc3c(=O)c(C(=O)NCCC(=O)NCCCC[C@H](N)C(=O)N[C@@H](CCCNC(=N)N)C(=O)N[C@@H](CCCNC(=N)N)C(=O)N[C@@H](CCCNC(=N)N)C(=O)N[C@@H](CCCNC(=N)N)C(=O)N[C@@H](Cc4c[nH]c5ccccc45)C(=O)N[C@@H](Cc4c[nH]c5ccccc45)C(=O)N[C@@H](Cc4c[nH]c5ccccc45)C(=O)N[C@@H](Cc4c[nH]c5ccccc45)C(=O)O)cn1c23 [Conjugate linear (R4W4)-levofloxacin (6)] (H-K([βAla-Levofloxacinoyl])RRRRWWWW-OH)
MIC, Methicillin-Resistant Staphylococcus aureus (MRSA) [2, 4]: 64 µg/mL (≈ 33.2 µM) | MIC, Klebsiella pneumoniae [3, 6]: >128 µg/mL

C[C@@H](O)[C@H]1C(=O)N2C(C(=O)O)=C(S[C@@H]3CN[C@H](C(=O)N(C)C)C3)[C@H](C)[C@H]12 [Meropenem]
MIC [3, 4]: 1 µg/mL (≈ 2.61 µM)

CN[C@H](CC(C)C)C(=O)N[C@H]1C(=O)N[C@@H](CC(N)=O)C(=O)N[C@H]2C(=O)N[C@H]3C(=O)N[C@H](C(=O)N[C@H](C(=O)O)c4cc(O)cc(O)c4-c4cc3ccc4O)[C@H](O)c3ccc(c(Cl)c3)Oc3cc2cc(c3O[C@@H]2O[C@H](CO)[C@@H](O)[C@H](O)[C@H]2O[C@H]2C[C@](C)(N)[C@H](O)[C@H](C)O2)Oc2ccc(cc2Cl)[C@H]1O [Vancomycin]
MIC [2]: 1 µg/mL (≈ 0.69 µM)

N=C(N)NCCC[C@@H]1NC(=O)[C@H](CCCNC(=N)N)NC(=O)[C@H](CCCNC(=N)N)NC(=O)[C@H](Cc2c[nH]c3ccccc23)NC(=O)[C@H](Cc2c[nH]c3ccccc23)NC(=O)[C@H](Cc2c[nH]c3ccccc23)NC(=O)[C@H](Cc2c[nH]c3ccccc23)NC(=O)[C@H](CCCNC(=N)N)NC1=O [[R4W4] (3)] (cyclo(RRRRWWWW))
MIC, Methicillin-Resistant Staphylococcus aureus (MRSA) ([2]; Methicillin-Resistant (Los Angeles County (LAC) clone)): 4 µg/mL (≈ 2.92 µM) | MIC, Klebsiella pneumoniae [3, 6]: 16 µg/mL (≈ 11.7 µM) | MIC against MRSA [1]: 2.97 µg/mL
